Legend:
MIA-PACA-2 cells = test: Viability of PDAC MIA-PACA-2 cells treated alone and in combination for 5 days; synergy score by SynergyFinder.org; assay type: cell-based; settings: MIA-PACA-2, single agent, 5 days (FIG. 2)
Source text: Synergy scores can be interpreted as the average excess response due to drug interactions. Synergy scores close to 0 give limited confidence in synergy or antagonism. So, when the synergy scores are: less than −10, the interaction between two drugs is likely to be antagonistic. From −10 to 10, the interaction between two drugs is likely to be additive. Greater than 10, the interaction between two drugs is likely to be synergistic.
Pancreatic ductal adenocarcinoma (PDAC) MIA-PACA-2 cells were treated with increasing concentrations of Olaparib and the Omomyc peptide sequence SEQ ID NO: 4 alone and in combination, for 5 days.
Then synergy score was calculated by SynergyFinder.org after having carried out 3 biological replicates as described above.

[1] = test system: SUM149 cell-derived xenograft (CDX); test: SUM149 cell-derived xenograft (CDX) model, orthotopic in mammary fat-pad, tumour growth; assay type: in vivo; settings: SUM149 CDX mice, 4 weeks; Omomyc 50 mg/kg intravenous once a week; Olaparib 50 mg/kg oral gavage 6 times a week; preliminary
Method: SUM149 cell-derived xenograft (CDX) model mice were used for in vivo studies. Each mouse was inoculated orthotopically in the mammary fat-pad with 5 million cells. As the tumours reached 100 mm^3, mice were randomised in 4 treatment groups. Specifically, mice were treated with Omomyc once a week (50 mg/kg, intravenous), with Olaparib 6 times a week (50 mg/kg oral gavage), with the combination of the 2 drugs (combo) or with vehicle alone for 4 weeks. Relative volume was calculated as a percentage of tumour growth from the day of randomization and beginning of treatments. At end-point the average of the groups were respectively: vehicle 901.8%, Omomyc 663.6%, Olaparib 623.6%, and combination 335.8%.

SMILES: O=C(c1cc(Cc2n[nH]c(=O)c3ccccc23)ccc1F)N1CCN(C(=O)C2CC2)CC1 [Olaparib, reference compound]
- sensitivity of the cell line to the single agent (viability) (MIA-PACA-2 cells): particularly resistant
- Relative volume, percentage of tumour growth from the day of randomization (group average at end-point) [1]: 623.6%

From US20260151453A1, “COMBINATION THERAPY FOR THE TREATMENT OF CANCER” (PEPTOMYC, S.L., priority 2022, published 2026)
